Measurements from patent US10894787B2, “Modulators of the GPR119 receptor and the treatment of disorders related thereto” (Arena Pharmaceuticals, Inc., priority 2010, dated 2021).

System: male 129SVE mice
Test: Oral glucose tolerance test (oGTT) in male 129SVE mice
Type: in vivo, mouse
Conditions: for Plasma Glucose Mean: N = 6; for % Inhibition of Glucose Excursion: AUC reduction relative to vehicle control
Procedure: Male 129SVE mice (approximately 8-week old) were fasted for 18 h and randomly grouped (n=6) to receive a GPR119 agonist, (Compound 1), at 0.3, 3, or 30 mg/kg (mg/kg body weight). The compound was delivered orally via a gavage needle (p.o., volume 4 mL/kg) 30 min prior to glucose bolus (3 g/kg) (time=−30 min in FIG. 3), with a separate group receiving vehicle (20% hydroxypropyl-beta-cyclodextrin) as control. At time 0 min. the glucose bolus was administered. Levels of blood glucose were assessed using a glucometer (One-Touch Ultra™, LifeScan) at time −30 minute (prior to compound administration), at 0 min (at time when glucose bolus was given), and at 20, 40, 60, 120 min post glucose bolus. Glucose excursion (AUC (area under the curve) reduction) in compound treated animals relative to vehicle control is given in FIG. 4, and in Table 4.

With `CN(C)C(=O)c1ccc(Nc2ncnc(N3CCC(c4nc(C(C)(C)F)no4)CC3)c2F)c(F)c1` [Compound 1, 3-fluoro-4-(5-fluoro-6-(4-(3-(2-fluoropropan-2-yl)-1,2,4-oxadiazol-5-yl)piperidin-1-yl)pyrimidin-4-ylamino)-N,N-dimethylbenzamide] the “Plasma Glucose Mean” value (0.3 mg/kg p.o. 30 min prior to glucose bolus, time 0 min) was 74.2 mg/dL, the “Plasma Glucose Mean” value (0.3 mg/kg p.o., 20 min post glucose bolus) was 221.3 mg/dL and the “Plasma Glucose Mean” value (0.3 mg/kg p.o., 40 min post glucose bolus) was 274.8 mg/dL. For the same molecule, the “Plasma Glucose Mean” value (0.3 mg/kg p.o., 60 min post glucose bolus) was 258.2 mg/dL, the “Plasma Glucose Mean” value (0.3 mg/kg p.o., 120 min post glucose bolus) was 154.5 mg/dL and the “% Inhibition of Glucose Excursion” value (0.3 mg/kg p.o., 129SVE mice) was 16.9%. The “Plasma Glucose Mean” value (0.3 mg/kg p.o., time -30 min (prior to compound administration)) was 58.5 mg/dL, the “Plasma Glucose Mean” value (3.0 mg/kg p.o. 30 min prior to glucose bolus, time 0 min) was 75.2 mg/dL and the “Plasma Glucose Mean” value (3.0 mg/kg p.o., 20 min post glucose bolus) was 206.7 mg/dL. For the same molecule, the “Plasma Glucose Mean” value (3.0 mg/kg p.o., 40 min post glucose bolus) was 233.0 mg/dL, the “Plasma Glucose Mean” value (3.0 mg/kg p.o., 60 min post glucose bolus) was 213.5 mg/dL and the “Plasma Glucose Mean” value (3.0 mg/kg p.o., 120 min post glucose bolus) was 138.2 mg/dL. The “% Inhibition of Glucose Excursion” value (3 mg/kg p.o., 129SVE mice) was 34.8%, the “Plasma Glucose Mean” value (3.0 mg/kg p.o., time -30 min (prior to compound administration)) was 63.5 mg/dL and the “Plasma Glucose Mean” value (30.0 mg/kg p.o. 30 min prior to glucose bolus, time 0 min) was 78.7 mg/dL. For the same molecule, the “Plasma Glucose Mean” value (30.0 mg/kg p.o., 20 min post glucose bolus) was 185.8 mg/dL, the “Plasma Glucose Mean” value (30.0 mg/kg p.o., 40 min post glucose bolus) was 216.0 mg/dL and the “Plasma Glucose Mean” value (30.0 mg/kg p.o., 60 min post glucose bolus) was 191.7 mg/dL. For the same molecule, the “Plasma Glucose Mean” value (30.0 mg/kg p.o., 120 min post glucose bolus) was 138.7 mg/dL, the “% Inhibition of Glucose Excursion” value (30 mg/kg p.o., 129SVE mice) was 42.1% and the “Plasma Glucose Mean” value (30.0 mg/kg p.o., time -30 min (prior to compound administration)) was 64.5 mg/dL. For the same molecule, the “Effect on blood glucose after a challenge with glucose” value (129SVE mice, 0.3-30 mg/kg p.o.) was “lowered blood glucose”.
